# Molecular target: T1, Recombinant M-MuLV reverse transcriptase (Moloney murine leukemia virus, UniProt P03355)
# T1 construct: Recombinant M-MuLV reverse transcriptase was purchased from New England Biolabs, USA; purchased New England Biolabs
# Assay: Inhibition of M-MuLV reverse transcriptase activity ((3H)dTTP incorporation)
# Assay type: biochemical
# Method: The enhanced antiviral effect of the pharmaceutical composition of the invention was investigated by testing the inhibitory effect thereof on reverse transcriptase activity of Moloney murine virus(M-MuLV). Recombinant M-MuLV reverse transcriptase was purchased from New England Biolabs, USA. Measurement of the activity was carried out by investigating the poli(rA)noligo(dT)12-18 template-primer directed incorporation of (^3H)dTTP(Amersham) into the cDNS.
# In each case, the final volume of the reaction mixture was 20 microliters. The composition of the reaction mixture was as follows:
# 2 microliters of 10× reverse transcriptase buffer,
# 20 microgram/ml template primer,
# the test compound (dissolved in 1× reverse transcriptase buffer solution).
# The composition of the 10× reverse transcriptase buffer (1 liter of solution contains the following substances):
# 500 mM tris-hydrochloride/tris (hydroxy-methyl)-amino-methan-hydrochloride/(pH=8,3),
# 300 mM potassium-chloride, and
# 100 mM DTT (dithiotreitol).
# The test materials were AZT and compound “L” added separately or together. The reaction was initiated by adding 5U reverse transcriptase. The reaction mixture was incubated for 40 min at 37° C. Then, 15 microliters of reaction mixture was transferred to Whatman DE81 filter-paper disc, washed by 5% by mass of aqueous disodium-hydrogen-phosphate buffer, by water, and then with 96% by mass of ethanol. After drying, the discs were transferred into 5 ml of scintillation liquid (OptiPhase ‘HiSafe 3’, Wallac), and the radioactivity of samples was measured by a Packard Tri-Carb 2200 CE liquid scintillation counter. Enzymatic activity was calculated in percent from the experimental results.
Compound,"activity at 0.1 µM (0.1 microM/ml AZT, control = 100)","activity at 0.2 µM (0.2 microM/ml AZT, control = 100)","inhibitory effect on M-MuLV reverse transcriptase (in words) (AZT by itself, in the concentrations applied)","Activity (%) (0.02 mg/ml compound “L”, control = 100)","Activity (%) (0.03 mg/ml compound “L”, control = 100)",inhibitory effect (compound “L” alone)
"Cc1cn([C@H]2C[C@H](N=[N+]=[N-])[C@@H](CO)O2)c(=O)[nH]c1=O [AZT, 3′-azido-3′-deoxythymidine]",91%,84%,only minor inhibitory effect,–,–,–
"Cl.Cl.NC(=NOCC(O)CN1CCCCC1)c1cccnc1 (stereo not drawn) [compound “L”, 0-(3-piperidino-2-hydroxy-1-propyl)nicotinic acid amid-oxime dihydrochloride]",–,–,–,75%,74%,about 25%

# Source: patent US6451851B1, “Pharmaceutical composition with antiviral activity containing an hydroxymic acid derivative and an antiviral agent” (N-Gene Research Laboratories Inc., priority 1997, dated 2002)
